Reference: patent US9381381B2, “Treatment of nail infections with no” (Aberdeen University, priority 2001, dated 2016)

Experiments:
A. niger = assay: Franz cell nail bioassay for anti-fungal gas penetration across a human nail; type: cell-based, Aspergillus niger; conditions: 4 applications every 2 h 10 min, read after 24 hours; agar 8 mm below nail
Method: After the agar had cooled and set, 25 μl of an A. niger spore suspension was pipetted onto the surface of the agar and a section of human nail fitted in an air-tight manner above the outlet hole, and clamped in place. The cells were then incubated at 32° C. for 24 h to obtain a carpet of mycelium.
The top of the funnel for all of the Franz cells was then covered with Parafilm. The cells were left at room temperature. After a period of 2 h 10 min, the solutions in each Franz cell were removed and replaced with an equivalent solution and the process repeated every 2 h and 10 min for a further […] applications, giving a total of 4 applications. After the final application of solution, the cells were left covered at room temperature, to allow slow growth of the organism for 24 h.

onychomycosis = conditions: cited from earlier work; for Safety concerns: in vivo, po

For `O=C(O)CC(O)(CC(=O)O)C(=O)O` [citric acid], the “Growth of A. niger mycelium under human nail” value (A. niger) was “full carpet of growth of mycelium”.

In the case of `CCC(C)n1ncn(-c2ccc(N3CCN(c4ccc(OCC5COC(Cn6cncn6)(c6ccc(Cl)cc6Cl)O5)cc4)CC3)cc2)c1=O` (centres unmarked) [itraconazole], the Safety concerns (onychomycosis) is given as “liver toxicity, severe skin reactions and drug interactions”.

In the case of `O=NO` [sodium nitrite], the “Growth of A. niger mycelium under human nail” value (A. niger) was “full carpet of growth of mycelium”.

In the case of `CN(C/C=C/C#CC(C)(C)C)Cc1cccc2ccccc12` [terbinafine], the Safety concerns (onychomycosis) is given as “liver toxicity, severe skin reactions and drug interactions” and the Cure rates (onychomycosis; oral treatment) is given as ~70%.
